# According to US10752588B2 (The Broad Institute, Inc., priority 2014, dated 2020):
# Assays:
# [1] = Microsomal stability, rat; assay type: in vitro ADME
# [2] = Microsomal stability, mouse
# human D2R/β-arrestin [3] = molecular target: T1, human D2R/β-arrestin (Homo sapiens (Human), UniProt P14416); experiment: cell-based; details: cAMP Antagonist, CHO-K1 cell line expressing human D2R/β-arrestin; quinpirole used as agonist
# human D2R/β-arrestin [4] = molecular target: T1, human D2R/β-arrestin; experiment: cell-based; details: β-arrestin Antagonist, CHO-K1 cell line expressing human D2R/β-arrestin; quinpirole used as agonist
# [5] = Plasma protein binding, human; assay type: in vitro ADME; details: plasma, read-out: Plasma Protein Binding % bound
# Plasma stability, human = assay type: in vitro ADME
# Caco2 = Caco2 permeability; assay type: in vitro ADME; parameters: unit not given beside the values; details: for Caco2 A-B: A-B direction; for Caco2 B-A: B-A direction
# [6] = Plasma protein binding, mouse; assay type: in vitro ADME; details: plasma, read-out: Plasma Protein Binding % bound
# human D2R/β-arrestin [7] = molecular target: T1, human D2R/β-arrestin; experiment: β-Arrestin agonist assay (PathHunter); assay type: cell-based; details: CHO-K1 cell line expressing human D2R/β-arrestin
# Procedure, shortened: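 After compound incubation, detection reagent (Buffer:Emerald II:Galactor-Star, 19:5:1) added and luminescence or fluorescence read.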
# Plasma stability, rat = assay type: in vitro ADME
# Solubility in PBS = assay type: physicochemical; details: aqueous buffer
# [8] = Plasma protein binding, rat; assay type: in vitro ADME; details: plasma, read-out: Plasma Protein Binding % bound
# [9] = Microsomal stability, human; assay type: in vitro ADME
# human D2R/β-arrestin [10] = molecular target: T1, human D2R/β-arrestin; experiment: Gi/cAMP agonist assay (Lance Ultra cAMP, Forskolin); assay type: cell-based; details: CHO-K1 cell line expressing human D2R/β-arrestin
# Procedure, shortened: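 Cells were plated and incubated before compounds were pin-transferred and incubated for 10 min at 37 °C. Forskolin was then added to stimulate cAMP. cAMP was detected by Lance Ultra TR-FRET using Eu-cAMP tracer and ULight-anti-cAMP antibody.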
# D2 = D2 (Homo sapiens (Human), UniProt P14416); experiment: D2 radioligand binding assay
# plasma protein [11] = experiment: Plasma protein binding, human; assay type: in vitro ADME; details: plasma, read-out: Plasma Protein Binding % bound
# plasma protein [12] = experiment: Plasma protein binding, mouse; assay type: in vitro ADME; details: plasma, read-out: Plasma Protein Binding % bound
# plasma protein [13] = experiment: Plasma protein binding, rat; assay type: in vitro ADME; details: plasma, read-out: Plasma Protein Binding % bound
# Rotarod performance = assay type: in vivo; details: mice, 10 or 30 mg/kg, compared with clozaril at 3 mg/kg
# Method: In the test, test animals are placed on a horizontally oriented, rotating cylinder (rod) suspended above a cage floor. The test animals naturally try to stay on the rotating cylinder, or rotarod, and avoid falling to the ground. Test animals are administered with various compounds (e.g., compounds of the invention or control compounds). The length of time that a given animal stays on this rotating rod is a measure of the animal's balance, coordination, physical condition, and motor-planning. The speed of the rotarod is mechanically driven, and can be held constant.
# In the test, mice were placed on a horizontally oriented, rotating cylinder (rod) suspended above a cage floor, which was low enough not to injure the animal, but high enough to induce avoidance of fall. The mice naturally try to stay on the rotating cylinder, or rotarod, and avoid falling to the ground.
# MDR1-MDCKII = MDR1-MDCKII permeability assay; assay type: in vitro ADME
# Excerpt: MDR1-MDCKII Permeability Assay
# This is a standard permeability assay that predicts brain penetration. It was ran by the CRO Absorption Systems (www.absorption.com/drug-discovery/permeability/cell-based/).
# human D2R/β-arrestin [14] = molecular target: T1, human D2R/β-arrestin; details: CHO-K1 cell line expressing human D2R/β-arrestin, β-arrestin and Gi/cAMP pathways, FIG. 1
# T1 sequence (P14416 whole entry): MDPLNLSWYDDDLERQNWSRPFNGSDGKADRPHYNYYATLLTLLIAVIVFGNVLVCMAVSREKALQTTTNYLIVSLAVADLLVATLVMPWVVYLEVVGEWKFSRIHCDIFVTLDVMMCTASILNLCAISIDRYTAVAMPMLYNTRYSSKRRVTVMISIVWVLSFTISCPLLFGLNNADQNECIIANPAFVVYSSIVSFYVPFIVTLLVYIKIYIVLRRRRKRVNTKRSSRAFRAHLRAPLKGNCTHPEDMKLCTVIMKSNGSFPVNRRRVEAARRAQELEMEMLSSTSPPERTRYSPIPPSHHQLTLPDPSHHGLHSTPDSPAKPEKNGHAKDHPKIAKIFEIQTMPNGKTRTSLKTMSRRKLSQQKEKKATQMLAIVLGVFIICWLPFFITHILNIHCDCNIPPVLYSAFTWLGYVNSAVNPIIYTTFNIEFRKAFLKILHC
# Sequence of D2 (P14416 whole entry): as above
Compound,Microsomal Stability: % remaining after 60 minutes [1] [%],Microsomal Stability: % remaining after 60 minutes [2],IC50 (human D2R/β-arrestin [3]) [µM],IC50 (human D2R/β-arrestin [4]) [µM],fraction unbound [5],"Plasma Stability: % remaining after 5 hours (Plasma stability, mouse)","Plasma Stability: % remaining after 5 hours (Plasma stability, human)",Caco2 A-B (Caco2),Caco2 B-A (Caco2),fraction unbound [6],EC50 (human D2R/β-arrestin [7]) [µM],"Plasma Stability: % remaining after 5 hours (Plasma stability, rat)",solubility (Solubility in PBS) [µM],fraction unbound [8],Microsomal Stability: % remaining after 60 minutes [9] [%],EC50 (human D2R/β-arrestin [10]) [µM],Ki (D2) [µM],further results
"O=C(NC(c1ccc(Cl)cc1)c1ccccn1)C1CCN(CCOc2ccc(F)cc2F)CC1 (stereo not shown) [Compound 115, N-((4-chlorophenyl)(pyridin-2-yl)methyl)-1-(2-(2,4-difluorophenoxy)ethyl)piperidine-4-carboxamide]",77,26%,> 30,1 to 10,0.008,86.2%,91.2%,30.4,11.5,0.015,> 30,98.0%,220,0.005,63,0.1 to 1,,
"Clc1ccc(C(NCC2CCN(CCOc3ccccc3)CC2)c2ccccn2)cc1 (stereo not shown) [Compound 114, 1-(4-chlorophenyl)-N-((1-(2-phenoxyethyl)piperidin-4-yl)methyl)-1-(pyridin-2-yl)methanamine]",20,6%,< 0.1,0.1 to 1,0.014,"h100, m100, r100%","h100, m100, r100%",,,0.023,> 30,"h100, m100, r100%",,0.005,63,> 30,0.1 to 1,
COc1cccc(C(NC(=O)C2CCN(CCOc3ccccc3)CC2)c2ccccn2)c1 (stereo not shown) [Compound 35],80,74%,1 to 10,1 to 10,,98%,100%,26.7,46.7,,> 30,99.6%,441,,83,1 to 10,,fraction unbound (plasma protein [11]): 0.086; fraction unbound (plasma protein [12]): 0.074; fraction unbound (plasma protein [13]): 0.042; catalepsy in the rotarod test (Rotarod performance): promotes far less catalepsy than the known antipsychotic Clozapine at efficacious doses
"CN(CC1CCN(CCOc2ccccc2)CC1)C(c1ccc(Cl)cc1)c1ccccn1 (stereo not shown) [Compound 79, 1-(4-chlorophenyl)-N-methyl-N-((1-(2-phenoxyethyl)piperidin-4-yl)methyl)-1-(pyridin-2-yl)methanamine]",,m0%,> 30,0.1 to 1,,,,,,,> 30,,,,,< 0.1,0.1 to 1,MDR1-MDCKII A-B (MDR1-MDCKII; A-B direction): 6.17; MDR1-MDCKII B-A (MDR1-MDCKII; B-A direction): 22.1; functional profile at D2R (antagonist mode) (human D2R/β-arrestin [14]): representative β-arrestin biased D2R antagonists
"O=C(NC(c1ccc(Cl)cc1)c1ccccn1)C1CCN(CCOc2ccccc2Cl)CC1 (stereo not shown) [Compound 66, 1-(2-(2-chlorophenoxy)ethyl)-N-((4-chlorophenyl)(pyridin-2-yl)methyl)piperidine-4-carboxamide]",35,7%,< 0.1,< 0.1,0.007,100%,99.7%,15.1,2.4,0.008,> 30,88.1%,10.5,0.006,46,10 to 30,0.1 to 1,
